From ChEMBL document CHEMBL2074262, “Molecular identification and characterization of novel members of the human organic anion transporter (OATP) family” (Biochem Biophys Res Commun, 2000)

Columns and labels:
Assay type in all cases: functional, cell-based
[1] = target: T1, Solute carrier organic anion transporter family member 1B1 (Homo sapiens, UniProt Q9Y6L6); assay: TP_TRANSPORTER: uptake in OATP-C-expressing HEK293 cells
T1 sequence (Q9Y6L6 whole entry): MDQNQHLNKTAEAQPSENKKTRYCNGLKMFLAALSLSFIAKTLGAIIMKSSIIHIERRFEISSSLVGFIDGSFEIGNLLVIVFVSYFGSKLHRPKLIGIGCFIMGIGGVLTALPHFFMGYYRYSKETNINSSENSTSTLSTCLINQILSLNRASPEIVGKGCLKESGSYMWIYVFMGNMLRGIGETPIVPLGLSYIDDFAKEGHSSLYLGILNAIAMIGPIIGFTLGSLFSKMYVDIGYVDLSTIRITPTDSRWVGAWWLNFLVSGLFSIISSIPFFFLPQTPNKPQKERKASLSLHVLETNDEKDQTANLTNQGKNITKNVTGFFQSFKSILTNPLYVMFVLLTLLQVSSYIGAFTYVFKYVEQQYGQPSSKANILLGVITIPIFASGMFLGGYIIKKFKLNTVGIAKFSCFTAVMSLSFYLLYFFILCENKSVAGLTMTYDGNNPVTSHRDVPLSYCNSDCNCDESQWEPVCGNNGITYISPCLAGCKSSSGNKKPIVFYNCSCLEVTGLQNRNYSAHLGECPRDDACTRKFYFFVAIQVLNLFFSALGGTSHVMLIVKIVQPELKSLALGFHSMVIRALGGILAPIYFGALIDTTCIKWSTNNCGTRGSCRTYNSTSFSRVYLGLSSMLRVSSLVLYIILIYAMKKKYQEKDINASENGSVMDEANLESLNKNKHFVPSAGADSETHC

[2] = target: T2, Solute carrier organic anion transporter family member 4A1 (Homo sapiens, UniProt Q96BD0); assay: TP_TRANSPORTER: uptake in OATP-E-expressing HEK293 cells
T2 sequence (Q96BD0 whole entry): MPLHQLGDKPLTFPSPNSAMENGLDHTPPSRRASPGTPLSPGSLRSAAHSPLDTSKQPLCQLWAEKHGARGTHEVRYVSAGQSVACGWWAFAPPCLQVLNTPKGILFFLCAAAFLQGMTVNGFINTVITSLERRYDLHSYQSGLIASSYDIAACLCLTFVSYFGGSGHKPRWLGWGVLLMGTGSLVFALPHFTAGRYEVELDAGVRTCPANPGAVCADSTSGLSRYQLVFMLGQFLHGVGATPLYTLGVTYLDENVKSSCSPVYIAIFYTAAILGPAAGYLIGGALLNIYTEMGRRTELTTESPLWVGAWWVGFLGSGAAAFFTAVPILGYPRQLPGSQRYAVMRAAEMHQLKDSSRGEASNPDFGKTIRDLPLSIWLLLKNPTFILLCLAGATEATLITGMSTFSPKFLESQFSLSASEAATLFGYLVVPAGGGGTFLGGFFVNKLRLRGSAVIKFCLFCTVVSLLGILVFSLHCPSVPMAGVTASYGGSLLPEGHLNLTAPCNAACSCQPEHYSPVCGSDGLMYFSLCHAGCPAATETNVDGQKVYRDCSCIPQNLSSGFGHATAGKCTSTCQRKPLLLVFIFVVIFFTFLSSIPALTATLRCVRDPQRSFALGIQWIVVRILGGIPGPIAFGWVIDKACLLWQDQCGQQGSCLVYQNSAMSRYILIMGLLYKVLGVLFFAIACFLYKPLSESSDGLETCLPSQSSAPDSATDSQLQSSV

[3] = target: T3, Solute carrier organic anion transporter family member 3A1 (Homo sapiens, UniProt Q9UIG8); assay: TP_TRANSPORTER: uptake in OATP-D-expressing HEK293 cells
T3 sequence (Q9UIG8 whole entry): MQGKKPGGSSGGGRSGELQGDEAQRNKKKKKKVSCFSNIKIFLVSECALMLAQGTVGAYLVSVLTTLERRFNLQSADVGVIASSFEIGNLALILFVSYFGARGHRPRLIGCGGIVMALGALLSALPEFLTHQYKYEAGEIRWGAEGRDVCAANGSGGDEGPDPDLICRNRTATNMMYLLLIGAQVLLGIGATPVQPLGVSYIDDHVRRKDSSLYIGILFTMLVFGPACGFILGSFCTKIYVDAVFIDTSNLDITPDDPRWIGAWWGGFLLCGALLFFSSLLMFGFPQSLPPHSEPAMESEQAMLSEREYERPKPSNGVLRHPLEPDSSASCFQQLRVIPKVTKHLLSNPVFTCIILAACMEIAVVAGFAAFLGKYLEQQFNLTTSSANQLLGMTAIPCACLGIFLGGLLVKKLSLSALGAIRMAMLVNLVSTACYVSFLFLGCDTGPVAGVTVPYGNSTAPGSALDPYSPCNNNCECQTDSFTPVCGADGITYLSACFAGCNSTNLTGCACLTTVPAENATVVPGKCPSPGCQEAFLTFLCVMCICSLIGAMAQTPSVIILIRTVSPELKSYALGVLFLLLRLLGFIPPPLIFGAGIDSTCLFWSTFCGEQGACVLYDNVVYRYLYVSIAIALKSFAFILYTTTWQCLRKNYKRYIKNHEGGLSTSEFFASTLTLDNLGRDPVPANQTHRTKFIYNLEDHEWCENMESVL

[4] = target: T4, Solute carrier organic anion transporter family member 2B1 (Homo sapiens, UniProt O94956); assay: TP_TRANSPORTER: uptake in OATP-B-expressing HEK293 cells
T4 sequence (O94956 whole entry): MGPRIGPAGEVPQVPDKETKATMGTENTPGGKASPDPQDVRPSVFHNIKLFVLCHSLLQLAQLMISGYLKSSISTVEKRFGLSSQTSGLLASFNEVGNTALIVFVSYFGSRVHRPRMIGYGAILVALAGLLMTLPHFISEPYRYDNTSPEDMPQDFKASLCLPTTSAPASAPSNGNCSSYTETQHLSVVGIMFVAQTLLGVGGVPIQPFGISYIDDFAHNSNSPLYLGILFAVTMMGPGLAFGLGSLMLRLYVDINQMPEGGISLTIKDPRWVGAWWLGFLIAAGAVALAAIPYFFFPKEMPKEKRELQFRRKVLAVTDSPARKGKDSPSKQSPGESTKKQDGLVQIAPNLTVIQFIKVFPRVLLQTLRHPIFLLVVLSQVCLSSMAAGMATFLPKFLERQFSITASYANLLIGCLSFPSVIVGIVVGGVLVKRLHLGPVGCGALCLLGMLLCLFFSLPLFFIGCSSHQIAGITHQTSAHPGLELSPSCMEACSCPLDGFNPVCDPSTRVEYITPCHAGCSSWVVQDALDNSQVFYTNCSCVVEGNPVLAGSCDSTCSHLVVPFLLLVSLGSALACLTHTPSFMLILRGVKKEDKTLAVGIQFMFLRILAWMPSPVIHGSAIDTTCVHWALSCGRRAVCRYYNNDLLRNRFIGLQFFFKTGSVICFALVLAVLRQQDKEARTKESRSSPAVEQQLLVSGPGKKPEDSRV

SMILES | Activity [1] | Activity [2] | Activity [3] | Activity [4]
CCCCC[C@H](O)/C=C/[C@H]1[C@H](O)CC(=O)[C@@H]1C/C=C\CCCC(=O)O [DINOPROSTONE] | substrate [+] | substrate [+] | substrate [+] | substrate [+]
C[C@]12CC[C@@H]3c4ccc(O)cc4CC[C@H]3[C@@H]1CC[C@@H]2O[C@@H]1O[C@H](C(=O)O)[C@@H](O)[C@H](O)[C@H]1O [ESTRADIOL 17B GLUCURONIDE] | – | substrate [+] | – | –
C[C@]12CC[C@@H]3c4ccc(OS(=O)(=O)O)cc4CC[C@H]3[C@@H]1CCC2=O [ESTRONE SULFURIC ACID] | – | substrate [+] | substrate [+] | –
CC1(C)S[C@@H]2[C@H](NC(=O)Cc3ccccc3)C(=O)N2[C@H]1C(=O)O [PENICILLIN G] | substrate [+] | substrate [+] | substrate [+] | substrate [+]
